Measured values taken from BigSolDB 2.1.

Details: in acetone

## CC[C@H](C)C(=O)O[C@H]1C[C@@H](C)C=C2C=C[C@H](C)[C@H](CC[C@@H]3C[C@@H](O)CC(=O)O3)[C@H]21
278.65 K
  solubility (mole fraction): 0.00637
283.2 K
  solubility (mole fraction): 0.00742
288.2 K
  solubility (mole fraction): 0.00869
293.25 K
  solubility (mole fraction): 0.0104
298.75 K
  solubility (mole fraction): 0.0123
303.95 K
  solubility (mole fraction): 0.0157
308.25 K
  solubility (mole fraction): 0.0183
313.25 K
  solubility (mole fraction): 0.0226
318.15 K
  solubility (mole fraction): 0.0272
322.65 K
  solubility (mole fraction): 0.0321
